From paper PMC12040169 (PLOS Biology, 2025) come the findings set out here.

The data set in a line: in vitro. As to conditions: human, hela cells, % viability.

Turning to `CNC(=O)C1(Cc2cccc(-c3cccs3)c2)CCN(C(=O)CCc2ccccc2)CC1` [CBK285913], the viability at 28.5 h, 10 µM was 90.4%.
Turning to `CCOc1ccccc1C(=O)N1CCC(Cc2cccc(-c3cccs3)c2)(C(N)=O)CC1` [CBK285914], the viability at 28.5 h, 10 µM turned out to be 84.9%.
For `Cc1cccc(C)c1OCC(=O)N1CCC(c2cc(C(=O)NC(C)C)c3ccccc3n2)C1` (stereo not drawn) [CBK285916], the viability at 28.5 h, 10 µM was 112%.
With `CCOc1ccccc1C(=O)N1CCC(c2cc(C(=O)NC(C)C)c3ccccc3n2)C1` (stereo not drawn) [CBK285918], the viability at 28.5 h, 10 µM worked out at 106%.
On to `COc1ccc(CCC(=O)NC[C@H]2CC[C@H](c3cc(C(N)=O)c4ccccc4n3)CC2)cc1` [CBK285920], for which the viability at 28.5 h, 10 µM turned out to be 91.7%.
On to `CNC(=O)C1(Cc2ccccc2-c2ccccc2)CCN(C(=O)c2cccc(OC)c2)CC1` [CBK285922], for which the viability at 28.5 h, 10 µM was determined as 85.3%.
On to `CNC(=O)c1sc2ccccc2c1C1CCN(Cc2ccc(OC)c(OC(C)C)c2)C1` (stereo not drawn) [CBK285928], for which the viability at 28.5 h, 10 µM came out at 95.5%.
With `CNC(=O)c1sc2ccccc2c1C1CCN(Cc2nc3ccccc3n2C(C)C)C1` (stereo not drawn) [CBK285929] the figure was 98.4%; with `CC(C)NC(=O)c1sc2ccccc2c1C1CN(Cc2ccc3ncccc3c2)CCO1` (stereo not drawn) [CBK285930], 81.5%; with `O=C(NCCc1ccc(Cl)cc1)C1CCN(C(=O)CCc2ccccc2F)C1` (stereo not drawn) [CBK285931], 84.1%.
For `Cc1cc(Cc2ccccc2F)cc(C2CCN(C(=O)c3nc4ccc(F)cc4[nH]3)CC2)n1` [CBK285932], the viability at 28.5 h, 10 µM worked out at 120%.
Turning to `Cc1cc(N2CCCC(N(C)S(=O)(=O)c3cccc(F)c3)CC2)nc(C)n1` (stereo not drawn) [CBK285935], the viability at 28.5 h, 10 µM amounted to 85.5%.
Consider `CN(Cc1ccccc1)C(=O)c1c[nH]nc1C1CCCCN1Cc1ccccc1Cl` (stereo not drawn) [CBK285936], for which the viability at 28.5 h, 10 µM worked out at 88.1%.
Consider `CN(C)c1ccc(CCNS(=O)(=O)c2ccc3[nH]c(=O)[nH]c(=O)c3c2)cc1` [CBK285938], for which the viability at 28.5 h, 10 µM stood at 84.8%.
For the compound `Cc1nc(C2(O)CCCN(C3CCCC3)CC2)sc1COc1ccc(Cl)cc1` (stereo not drawn) [CBK285940], the viability at 28.5 h, 10 µM was 122%.
With `CN(Cc1ccc2ncccc2c1)C(=O)C1CN(S(=O)(=O)c2ccc(F)cc2)C1` [CBK285943], the viability at 28.5 h, 10 µM is 92.5%.
Consider `CC(C)c1csc(NC(=O)C2CN(S(=O)(=O)c3ccc(F)cc3)C2)n1` [CBK285944], for which the viability at 28.5 h, 10 µM is 120%.
In the case of `COc1ccc(-c2cncc(C3CN(Cc4cccc5ncccc45)CCO3)n2)cc1` (stereo not drawn) [CBK285947], the viability at 28.5 h, 10 µM is 96.7%.
Take `CC(NC(=O)CC1CCN(Cc2cccc(C(F)(F)F)c2)CC1)c1nc2ccccc2[nH]1` (stereo not drawn) [CBK285952]: the viability at 28.5 h, 10 µM worked out at 104%.
Take `COc1ccccc1CC(C)NC(=O)CC1CCN(c2nc(C)cc(C)n2)CC1` (stereo not drawn) [CBK285956]: the viability at 28.5 h, 10 µM was 111%.
In the case of `Cc1cc(C)nc(N2CCC(CC(=O)N3CCN(C4CCCC4)CC3)CC2)n1` [CBK285957], the viability at 28.5 h, 10 µM was 97.6%.
With `O=C(CC1CCN(Cc2ccccn2)CC1)NCC1(c2ccccc2)CCCC1` [CBK285959] the figure was 87.4%.
With `O=C(CC1CCN(Cc2ccccn2)CC1)Nc1ccc(OC2CCCC2)cc1` [CBK285960], the viability at 28.5 h, 10 µM was 104%.
Consider `CC(C)c1csc(NC(=O)CC2CCN(C(=O)CC3CCCCC3)CC2)n1` [CBK285963], for which the viability at 28.5 h, 10 µM was determined as 82.3%.
For `Cc1cccc(CCNC(=O)CC2CCN(C(=O)CC3CCCCC3)CC2)c1` [CBK285964], the viability at 28.5 h, 10 µM came out at 114%.
The value for `O=C(CC1CCN(C(=O)Cc2ccccc2)CC1)NC1(c2ccccc2)CCCC1` [CBK285965] was 101%; that for `Cc1cnc(Nc2cccc(C3CCCN3C(=O)CCOc3ccccc3C)n2)s1` (stereo not drawn) [CBK285972] was 112%; that for `COc1cccc(-c2cncc(C3CN(Cc4cccc5ncccc45)CCO3)n2)c1` (stereo not drawn) [CBK285973] was 102%.
Consider `CCn1c(CN2CCCC2c2nc(N(C)C)ncc2-c2ccc(F)cc2)nc2ccccc21` (stereo not drawn) [CBK285974], for which the viability at 28.5 h, 10 µM is 94.9%.
On to `O=C(Cn1cccc(C(=O)NC2CCCC2)c1=O)NCC1(c2ccccc2)CCCC1` [CBK285975], for which the viability at 28.5 h, 10 µM stood at 96.2%.
With `Cc1[nH]c2cccc(C(=O)N3CCCCC3CCNC(=O)c3ccccc3)c2c1C` (stereo not drawn) [CBK285976] the figure was 82%.
As to `COc1ccccc1CC(=O)N1[C@H](Cc2ccccc2)C[C@@H]2NCCCCC[C@H]21` [CBK285978], the viability at 28.5 h, 10 µM turned out to be 96.3%.
Regarding `O=C(NC[C@H]1CC[C@H](c2cc(C(=O)N3CCOCC3)c3ccccc3n2)CC1)C1CCCC1` [CBK285979], the viability at 28.5 h, 10 µM was determined as 89.9%.
Regarding `Cc1ccc(C2CCCN2C(=O)c2ccc(=O)n(CC(=O)NC3CCCCC3)c2)cc1C` (stereo not drawn) [CBK285982], the viability at 28.5 h, 10 µM was 97.4%.
As to `CC(C)(CNC(=O)c1ccc(=O)n(CC(=O)NC2CCCCC2)c1)c1ccccc1F` [CBK285983], the viability at 28.5 h, 10 µM came out at 90.7%.
For `CC(C)(CNC(=O)c1ccc(=O)n(CC(=O)NC2CCCCC2)c1)c1ccc(F)cc1` [CBK285984], the viability at 28.5 h, 10 µM was determined as 83.9%.
`Cc1cc(C)nc(Nc2ccc(C3CCCN(S(=O)(=O)c4ccc(F)cc4)C3)nc2)n1` (stereo not drawn) [CBK285987]: the viability at 28.5 h, 10 µM stood at 86%.
Consider `Cc1cc(C)nc(Nc2ccc(C3CCCN(C(=O)c4c(C)oc5c4CCCC5)C3)nc2)n1` (stereo not drawn) [CBK285988], for which the viability at 28.5 h, 10 µM came out at 109%.
On to `Cn1c(CCC(=O)Nc2ccc3c(c2)CN(Cc2ccccc2)C3)nc2ccccc21` [CBK285990], for which the viability at 28.5 h, 10 µM stood at 81.2%.
Turning to `COc1ccc(CCC(=O)N2CCCC2c2ccc(Cc3ccccc3F)cn2)cc1` (stereo not drawn) [CBK285992], the viability at 28.5 h, 10 µM stood at 94.2%.
Regarding `Cc1cc(C)nc(N2CCC(CC(=O)NC(C)CCN3CCCCCC3)CC2)n1` (stereo not drawn) [CBK285993], the viability at 28.5 h, 10 µM stood at 96.4%.
As to `Cc1cc(C)nc(N2CCC(CC(=O)NCCCc3ccc(F)cc3)CC2)n1` [CBK285995], the viability at 28.5 h, 10 µM is 83.1%.
`CCn1ccc(NC(=O)CC2CCN(Cc3cccc(C(F)(F)F)c3)CC2)n1` [CBK285997]: the viability at 28.5 h, 10 µM was 101%.
Consider `O=C(Cn1cc(C(=O)NCc2ccccc2)ccc1=O)Nc1cc(F)ccc1N1CCCC1` [CBK285998], for which the viability at 28.5 h, 10 µM worked out at 97.8%.
With `COc1cccc(CC(=O)N2CCCC2c2cc(Nc3nc(C)cc(C)n3)cc(C)n2)c1` (stereo not drawn) [CBK285999] the figure was 90.5%; with `Cc1nc2ccccn2c1CC(=O)N1CCCC(c2ccc(Cc3cccc(F)c3)cn2)C1` (stereo not drawn) [CBK286002], 91.3%.
`CC1CCc2nc(NC(=O)C3CN(S(=O)(=O)c4ccc(F)cc4)C3)sc2C1` (stereo not drawn) [CBK286004]: the viability at 28.5 h, 10 µM turned out to be 110%.
`O=C(Cn1cccc(C(=O)Nc2cc(F)ccc2N2CCCC2)c1=O)NC1CCCCC1` [CBK286008]: the viability at 28.5 h, 10 µM is 88.9%.
`Cc1ccc(C)c(C2CCCN2C(=O)c2cccn(CC(=O)NC3CCCCC3)c2=O)c1` (stereo not drawn) [CBK286010]: the viability at 28.5 h, 10 µM came out at 93%.
Turning to `Cc1[nH]c2c(C)ccc(C)c2c1CC(=O)N1[C@@H](c2ccccc2F)C[C@@H]2NC(=O)CCC[C@H]21` [CBK286011], the viability at 28.5 h, 10 µM came to 76.3%.
With `CNC(=O)c1ccc(-c2ccc(CNC(=O)C3(c4cccc(F)c4)CCCC3)cc2)nc1C` [CBK286013] the figure was 105%; with `Cc1cc(CCCC(=O)NCc2ccc(-c3ccc(C(N)=O)c(C)n3)cc2)ccc1F` [CBK286016], 90.3%.
On to `CC(C)c1ccc(C(C)NC(=O)c2cccn(CC(=O)NC3CCCC3)c2=O)cc1` (stereo not drawn) [CBK286018], for which the viability at 28.5 h, 10 µM stood at 91.3%.
As for `Cc1nc(Nc2cccc(C3CCCN3C(=O)COc3ccc(F)cc3)n2)sc1C` (stereo not drawn) [CBK286019], the viability at 28.5 h, 10 µM is 87%.
As for `O=C(NCc1ccc(F)cc1)c1ccc(=O)n(CC(=O)N2CCC3(CCCCC3)C2)c1` [CBK286021], the viability at 28.5 h, 10 µM came to 109%.
Regarding `Cc1ccc(C)c(C2CCCN2C(=O)C2CN(C(=O)C3CCN(C)CC3)C2)c1` (stereo not drawn) [CBK286022], the viability at 28.5 h, 10 µM turned out to be 97.5%.
With `Cn1c(=O)oc2ccc(C(=O)Nc3cccc(-c4ccc(F)cc4)c3)cc21` [CBK286023] the figure was 84.9%; with `Cc1nc(C2(O)CCCN(Cc3cccc(F)c3)CC2)sc1CCOc1ccccc1` (stereo not drawn) [CBK286024], 89.6%.
As for `Cc1cc(C)c2nc(NC(=O)c3ccc(=O)n(CC(=O)N(C)c4ccccc4)c3)sc2c1` [CBK286025], the viability at 28.5 h, 10 µM was found to be 91.5%.
On to `CCCn1cnc2cc(NC(=O)c3ccc(=O)n(CC(=O)N(C)c4ccccc4)c3)ccc21` [CBK286026], for which the viability at 28.5 h, 10 µM stood at 94.3%.
The value for `Cc1ccccc1CCNC(=O)c1cccn(CC(=O)N(C)C2CCCCC2)c1=O` [CBK286028] was 122%; that for `Cc1cc(C)nc(N2CCC(CC(=O)NCC(C)N3CCCCCC3)CC2)n1` (stereo not drawn) [CBK286029] was 94.9%; that for `O=C(Cc1ccccc1)N1CCC(CC(=O)N2CCC3(CCCCC3)C2)CC1` [CBK286031] was 93.8%.
Consider `Cc1ccc2c(c1)cc(C(=O)N1CCOC(C(=O)N3CCCCCC3)C1)n2C` (stereo not drawn) [CBK286032], for which the viability at 28.5 h, 10 µM was found to be 109%.
Consider `CC(C)(C(=O)N1CCC(C(=O)NCCc2c[nH]c3ccccc23)C1)c1ccc(F)cc1` (stereo not drawn) [CBK286034], for which the viability at 28.5 h, 10 µM worked out at 102%.
As for `CN(C)c1ncc(-c2ccc(Cl)cc2)c(C2CCCN2C(=O)CN2CCCC2)n1` (stereo not drawn) [CBK286037], the viability at 28.5 h, 10 µM amounted to 99.2%.
Consider `CC(C)c1ccc(C(C)NC(=O)c2ccc(=O)n(CC(=O)NC3CCCC3)c2)cc1` (stereo not drawn) [CBK286038], for which the viability at 28.5 h, 10 µM was 97.4%.
As for `O=C(Cn1cccc(C(=O)NCc2ccccc2)c1=O)Nc1cc(F)ccc1N1CCCC1` [CBK286041], the viability at 28.5 h, 10 µM is 101%.
With `CCn1c(C)nc2cc(NC(=O)Cn3cccc(C(=O)NC4CCCCC4)c3=O)ccc21` [CBK286042] the figure was 92.9%.
Consider `CC(C)c1ccc(C(C)NC(=O)Cn2cccc(C(=O)Nc3ccc(F)cc3)c2=O)cc1` (stereo not drawn) [CBK286043], for which the viability at 28.5 h, 10 µM worked out at 89.3%.
On to `CC(C)c1ccc(C(C)NC(=O)Cn2cccc(C(=O)NC3CCCCC3)c2=O)cc1` (stereo not drawn) [CBK286044], for which the viability at 28.5 h, 10 µM turned out to be 119%.
With `CN1CCN(C(=O)Cn2cccc(C(=O)Nc3ccc(F)cc3)c2=O)C(c2ccccc2)C1` (stereo not drawn) [CBK286045] the figure was 96.6%.
